Assay results from ChEMBL document CHEMBL1128608, “Syntheses and biological properties of novel aza-podophyllotoxin analogs prossessing pronounced antitumor activity” (Bioorg Med Chem Lett, 1995).
Values after ≈ are worked out from the molar mass of the structure shown.

Tests used:
Mus musculus [1] = experiment: Assayed for antitumor activity against P388 leukemia in mice at a dose of 25 mg/kg/injection; format: functional
L1210 = experiment: Tested for in vitro cytotoxicity against L1210 murine leukemia cells in mice; format: functional, cell-based; conditions: Mus musculus
Mus musculus [2] = experiment: Assayed for antitumor activity against P388 leukemia in mice at a dose of 5 mg/kg/injection; format: functional
Mus musculus [3] = experiment: Assayed for antitumor activity against P388 leukemia in mice at a dose of 50 mg/kg/injection; format: functional
Mus musculus [4] = experiment: Assayed for antitumor activity against P388 leukemia in mice at a dose of 10 mg/kg/injection; format: functional
Mus musculus [5] = experiment: Assayed for antitumor activity against P388 leukemia in mice at a dose of 100 mg/kg/injection; Toxic, T/C<85%; format: toxicity, organism-based; conditions: in vivo
Mus musculus [6] = experiment: Assayed for antitumor activity against P388 leukemia in mice at a dose of 100 mg/kg/injection; format: functional
Mus musculus [7] = experiment: Assayed for antitumor activity against P388 leukemia in mice at a dose of 250 mg/kg/injection; Toxic, T/C<85%; format: toxicity, organism-based; conditions: in vivo
Mus musculus [8] = experiment: Assayed for antitumor activity against P388 leukemia in mice at a dose of 250 mg/kg/injection; format: functional
Mus musculus [9] = experiment: Tested for antitumor activity against B16 melanoma in mice, at a dose of 50 mg/kg given intraperitoneally; format: functional; conditions: route intraperitoneal
Mus musculus [10] = experiment: Tested for antitumor activity against B16 melanoma in mice, at a dose of 100 mg/kg given intraperitoneally; format: functional; conditions: route intraperitoneal
Mus musculus [11] = experiment: Tested for antitumor activity against vincristine-resistant P388 leukemia (P388/VCR) in mice, at a dose of 5 mg/kg given intraperitoneally; format: functional; conditions: route intraperitoneal
[12] = Evaluated for the inhibition of microtubule assembly prepared from bovine brain; format: functional, Bos taurus
Mus musculus [13] = experiment: Tested for antitumor activity against vincristine-resistant P388 leukemia (P388/VCR) in mice, at a dose of 2.5 mg/kg given intraperitoneally; format: functional; conditions: route intraperitoneal
Mus musculus [14] = experiment: Tested for antitumor activity against vincristine-resistant P388 leukemia (P388/VCR) in mice, at a dose of 25 mg/kg given intraperitoneally; format: functional; conditions: route intraperitoneal
Mus musculus [15] = experiment: Assayed for antitumor activity against P388 leukemia in mice at a dose of 2.5 mg/kg/injection; format: functional
Mus musculus [16] = experiment: Tested for antitumor activity against vincristine-resistant P388 leukemia (P388/VCR) in mice, at a dose of 10 mg/kg given intraperitoneally; format: functional; conditions: route intraperitoneal
Mus musculus [17] = experiment: Tested for antitumor activity against B16 melanoma in mice, at a dose of 25 mg/kg given intraperitoneally; format: functional; conditions: route intraperitoneal
Mus musculus [18] = experiment: Tested for antitumor activity against vincristine-resistant P388 leukemia (P388/VCR) in mice, at a dose of 10 mg/kg given intraperitoneally; Toxic, T/C<85%; format: toxicity, organism-based; set-up: dose 10 mg/kg, route intraperitoneal; conditions: in vivo, ip
Mus musculus [19] = experiment: Tested for antitumor activity against B16 melanoma in mice at a dose of 25 mg/kg given intraperitoneally; format: functional; conditions: route intraperitoneal
Mus musculus [20] = experiment: Tested for antitumor activity against vincristine-resistant P388 leukemia (P388/VCR) in mice at a dose 1 mg/kg, given intraperitoneally; format: functional; conditions: route intraperitoneal
Mus musculus [21] = experiment: Assayed for antitumor activity against P388 leukemia in mice at a dose of 50 mg/kg/injection; Toxic, T/C<85%; format: toxicity, organism-based; conditions: in vivo
Mus musculus [22] = experiment: Tested for antitumor activity against vincristine-resistant P388 leukemia (P388/VCR) in mice at a dose 2.5 mg/kg, given intraperitoneally; format: functional; conditions: route intraperitoneal
Mus musculus [23] = experiment: Tested for antitumor activity against vincristine-resistant P388 leukemia (P388/VCR) in mice at a dose 5 mg/kg, given intraperitoneally; Toxic, T/C<85%; format: toxicity, organism-based; set-up: dose 5 mg/kg, route intraperitoneal; conditions: in vivo, ip

COc1cc(OC)cc([C@@H]2c3cc4c(cc3N[C@H]3COC(=O)N23)OCCO4)c1
T/C (Mus musculus [1]): 147%
IC50 (L1210): 0.028 µg/mL (≈ 0.0728 µM)
T/C (Mus musculus [2]): 114%
T/C (Mus musculus [3]): 199%
T/C (Mus musculus [4]): 131%
T/C (Mus musculus [5]): < 85%

COc1cc(OC)cc([C@@H]2c3cc4c(cc3N[C@@H]3COC(=O)N23)OCO4)c1
T/C (Mus musculus [1]): 137%
IC50 (L1210): 0.22 µg/mL (≈ 0.594 µM)
T/C (Mus musculus [3]): 159%
T/C (Mus musculus [4]): 123%
T/C (Mus musculus [6]): 214%

COc1cc([C@@H]2c3cc4c(cc3N[C@@H]3COC(=O)N23)OCCO4)cc(OC)c1OC
T/C (Mus musculus [1]): 153%
IC50 (L1210): 0.052 µg/mL (≈ 0.125 µM)
T/C (Mus musculus [2]): 119%
T/C (Mus musculus [3]): 165%
T/C (Mus musculus [4]): 131%
T/C (Mus musculus [7]): < 85%
T/C (Mus musculus [6]): 233%

COc1cc([C@@H]2c3cc4c(cc3N(N)[C@@H]3COC(=O)N23)OCO4)cc(OC)c1OC
T/C (Mus musculus [1]): 122%
IC50 (L1210): 0.75 µg/mL (≈ 1.81 µM)
T/C (Mus musculus [3]): 147%
T/C (Mus musculus [4]): 111%
T/C (Mus musculus [8]): 161%
T/C (Mus musculus [6]): 147%

COc1cc([C@@H]2c3cc4c(cc3N[C@H]3COC(=O)N23)OCO4)cc(OC)c1OC
T/C (Mus musculus [1]): 150%
T/C (Mus musculus [9]): 153%
IC50 (L1210): 0.05 µg/mL (≈ 0.125 µM)
T/C (Mus musculus [10]): 197%
T/C (Mus musculus [11]): 129%
IC50 [12]: 0.42 µg/mL (≈ 1.05 µM)
T/C (Mus musculus [13]): 113%
T/C (Mus musculus [2]): 124%
T/C (Mus musculus [14]): 152%
T/C (Mus musculus [3]): 161%
T/C (Mus musculus [4]): 128%
T/C (Mus musculus [8]): >326%
T/C (Mus musculus [15]): 111%
T/C (Mus musculus [6]): 172%
T/C (Mus musculus [16]): 152%

COc1cc([C@@H]2c3cc4c(cc3N[C@H]3COC(=O)N23)OCCO4)cc(OC)c1OC
T/C (Mus musculus [1]): 156%
IC50 (L1210): 0.055 µg/mL (≈ 0.133 µM)
T/C (Mus musculus [2]): 139%
T/C (Mus musculus [3]): 177%
T/C (Mus musculus [4]): 144%
T/C (Mus musculus [5]): < 85%

COc1cc([C@@H]2c3cc4c(cc3N[C@@H]3COC(=O)N23)OCO4)cc(OC)c1OC
T/C (Mus musculus [1]): 161%
T/C (Mus musculus [9]): 190%
IC50 (L1210): 0.42 µg/mL (≈ 1.05 µM)
T/C (Mus musculus [11]): 137%
IC50 [12]: 1.7 µg/mL (≈ 4.25 µM)
T/C (Mus musculus [2]): 117%
T/C (Mus musculus [3]): 239%
T/C (Mus musculus [17]): 163%
T/C (Mus musculus [4]): 144%
T/C (Mus musculus [18]): < 85%

COc1cc(OC)cc([C@@H]2c3cc4c(cc3N[C@@H]3COC(=O)N23)OCCO4)c1
T/C (Mus musculus [1]): 150%
IC50 (L1210): 0.08 µg/mL (≈ 0.208 µM)
T/C (Mus musculus [2]): 117%
T/C (Mus musculus [3]): 172%
T/C (Mus musculus [4]): 133%
T/C (Mus musculus [7]): < 85%
T/C (Mus musculus [6]): 94%

COc1cc([C@@H]2c3cc4c(cc3N(N)[C@H]3COC(=O)N23)OCO4)cc(OC)c1OC
T/C (Mus musculus [1]): 114%
IC50 (L1210): 0.09 µg/mL (≈ 0.217 µM)
T/C (Mus musculus [2]): 104%
T/C (Mus musculus [3]): 134%
T/C (Mus musculus [4]): 109%
T/C (Mus musculus [7]): < 85%
T/C (Mus musculus [6]): 153%

COc1cc(OC)cc([C@@H]2c3cc4c(cc3N[C@H]3COC(=O)N23)OCO4)c1
T/C (Mus musculus [1]): 139%
IC50 (L1210): 0.16 µg/mL (≈ 0.432 µM)
T/C (Mus musculus [3]): 156%
T/C (Mus musculus [4]): 110%
T/C (Mus musculus [8]): 206%
T/C (Mus musculus [6]): 206%

COc1cc(C2c3cc4c(cc3N=C3COC(=O)N32)OCO4)cc(OC)c1OC (configuration not stated)
T/C (Mus musculus [1]): 109%
IC50 (L1210): 0.54 µg/mL (≈ 1.36 µM)
T/C (Mus musculus [2]): 104%
T/C (Mus musculus [3]): 111%
T/C (Mus musculus [4]): 109%
T/C (Mus musculus [8]): 144%
T/C (Mus musculus [6]): 109%

COc1cc([C@@H]2c3cc4c(cc3[C@H](O)[C@H]3COC(=O)[C@H]23)OCO4)cc(OC)c1OC [PODOFILOX]
T/C (Mus musculus [1]): 111%
T/C (Mus musculus [19]): 110%
IC50 (L1210): 0.0036 µg/mL (≈ 0.00869 µM)
IC50 [12]: 0.13 µg/mL (≈ 0.314 µM)
T/C (Mus musculus [20]): 122%
T/C (Mus musculus [4]): 109%
T/C (Mus musculus [21]): < 85%
T/C (Mus musculus [22]): 125%
T/C (Mus musculus [15]): 111%
T/C (Mus musculus [23]): < 85%
